{
  "source": "paper PMC7835349",
  "about": "(Communications Biology, 2021)",
  "key": {"cleaved caspase-3 (CC3)": {"test_system": "cleaved caspase-3 (CC3)", "assay": "Cleaved caspase-3 immunohistochemistry of RS4;11 tumours", "type": "in vivo, C.B-17 SCID mouse", "conditions": "RS4;11 tumours, 1, 5 and 24 h post dose", "method": "Formalin fixed paraffin embedded (FFPE) slides were cut on a rotary microtome at 4 µm and placed onto Superfrost plus slides (VWR) dried thoroughly, and then baked for 20 min in an oven at 60 °C. Slides were then stained on a Ventana Discovery XT using a CCI standard protocol and DAB Map Kit (Ventana cat # 760-124). The slides were then incubated in the primary CC3 (Cell Signaling Technology) antibody at 100µL per slide of a 1:50 dilution for 1 h. The secondary antibody was a biotinylated goat anti-rabbit from Vector Labs (PK-6101) made according to manufacturer’s instructions and put in an auto-dispense container. The slides were incubated in the secondary antibody for 30 min and then counterstained with Hematoxylin (Ventana 760-2021) for 4 min and blued with bluing reagent (Ventana 760-2037) for 4 min. After the Ventana run was complete, slides were taken off the machine, rinsed in reaction buffer, dehydrated, cleared and mounted with permount. Digital slide images were acquired at 20 x magnification using the Aperio Scanscope XT (Vista, CA)."}, "[1]": {"assay": "Plasma protein binding (unbound fraction)", "type": "in vitro ADME", "conditions": "pre-clinical species and human, across pre-clinical species and man"}, "telemetered dogs": {"test_system": "telemetered dogs", "conditions": "dog, in vivo, 60 mg/kg"}, "OCI-LY10 xenograft": {"test_system": "OCI-LY10 xenograft", "assay": "OCI-LY10 xenograft efficacy and survival", "type": "in vivo, C.B-17 SCID mouse", "parameters": "OCI-LY10 xenograft efficacy, individual animals: unit not given here", "conditions": "for OCI-LY10 xenograft efficacy, individual animals: AZD0466 103 mg/kg (30mg/kg AZD4320)", "method": "Female C.B.−17 SCID mice were purchased from Charles River Laboratories. Mice were 5–8 weeks old at the time of tumour implantation. All xenograft studies were conducted at our Association for the Assessment and Accreditation of Laboratory Animal Care accredited facility in Waltham, MA in accordance with ethical regulations described in the guidelines established by the internal Institutional Animal Care and Use Committee. The dendrimer conjugates were formulated in citrate/phosphate buffer pH 5.0, diluted 1:10 with 5% glucose containing 1% w/v Kolliphor HS15, and AZD4320 was formulated in 30% HP-β-CD and dosed as a weekly intravenous (IV) administration at a volume of 5 ml/kg at the indicated doses. Five million RS4;11, five million SUDHL-4 or five million OCI-LY-10 cells were injected subcutaneously in the right flank of mice in a volume of 0.1 ml. Tumour volumes (measured by caliper), animal body weight, and tumor condition were recorded twice weekly for the duration of the study. The tumour volume was calculated (taking length to be the longest diameter across the tumour and width to be the corresponding perpendicular diameter) using the formula: length (mm) x width (mm)^2/0.52. For efficacy studies, mice were randomized based on tumour volumes using stratified sampling and enrolled into control and treatment groups. Tumour growth inhibition from the start of treatment was quantified by measuring the difference in tumour volume between control and treated groups. Survival analysis was evaluated using Mantel-Cox test. Tumours were also taken for bioanalysis."}},
  "note": "Values joined by “and” are separate entries in the source; they are usually repeats but may differ in a detail not shown here. Identical values can stand only once.",
  "data": [
    {"compound": "CN(CCO)CCC(CSc1ccccc1)Nc1ccc(S(=O)(=O)NC(=O)c2ccc(N3CCC(C(O)c4ccccc4-c4ccc(Cl)cc4)CC3)cc2)cc1S(=O)(=O)C(F)(F)F", "note": "(stereo not shown) [AZD4320]", "values": [
      {"measurement": "cleaved caspase-3 induction by IHC", "setting": "cleaved caspase-3 (CC3)", "result": "robust cleaved caspase induction"},
      {"measurement": "fraction unbound", "setting": "[1]", "result": "< 3e-05"}
    ]},
    {"compound": "AZD4320-MIDA-PEG2100 [AZD0466]", "values": [
      {"measurement": "adverse clinical signs", "setting": "telemetered dogs", "result": "not associated with any adverse clinical signs"},
      {"measurement": "OCI-LY10 xenograft efficacy, individual animals", "setting": "OCI-LY10 xenograft; day 18", "result": "193 and 170 and 155 and 173 and 235 and 111 and 163 and 131"},
      {"measurement": "OCI-LY10 xenograft efficacy, individual animals", "setting": "OCI-LY10 xenograft; day 21", "result": "363 and 334 and 195 and 394 and 490 and 191 and 262 and 142"},
      {"measurement": "OCI-LY10 xenograft efficacy, individual animals", "setting": "OCI-LY10 xenograft; day 25", "result": "214 and 151 and 62 and 129 and 351 and 181 and 222 and 188"},
      {"measurement": "OCI-LY10 xenograft efficacy, individual animals", "setting": "OCI-LY10 xenograft; day 28", "result": "475 and 406 and 118 and 241 and 485 and 190 and 184 and 194"},
      {"measurement": "OCI-LY10 xenograft efficacy, individual animals", "setting": "OCI-LY10 xenograft; day 32", "result": "410 and 443 and 252 and 338 and 536 and 215 and 401 and 301"},
      {"measurement": "OCI-LY10 xenograft efficacy, individual animals", "setting": "OCI-LY10 xenograft; day 35", "result": "664 and 595 and 309 and 391 and 667 and 265 and 496 and 262"},
      {"measurement": "OCI-LY10 xenograft efficacy, individual animals", "setting": "OCI-LY10 xenograft; day 39", "result": "653 and 578 and 346 and 432 and 638 and 281 and 354 and 330"},
      {"measurement": "OCI-LY10 xenograft efficacy, individual animals", "setting": "OCI-LY10 xenograft; day 42", "result": "773 and 918 and 408 and 717 and 707 and 404 and 319 and 272"},
      {"measurement": "mice with complete regressions", "setting": "OCI-LY10 xenograft; OCI-LY10, AZD0466 in combination with acalabrutinib", "result": "8/8"},
      {"measurement": "monotherapy activity", "setting": "OCI-LY10 xenograft; OCI-LY10 DLBCL model", "result": "neither agent showed any demonstrable monotherapy activity"}
    ]}
  ]
}
